Measured values: patent publication US10780074B2, “Compounds and uses thereof” (Sunovion Pharmaceuticals Inc., priority 2017, dated 2020)
Where a name gives a salt, the structure may show the parent alone. Read-outs that look alike come from different tables or passages of the source.

Test system: behaviors of compound-treated mice
Experiment: Neuropharmacological Assay (SmartCube)
Assay type: in vivo
Settings: for minimal effective dose: Mus musculus, ip, 0.25 h, dose having 50% or more total activity in SmartCube, read-out: MED (minimal effective dose)
Summary of the method: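 Mice dosed i.p. 15 min before testing, with compound in N-methyl-2-pyrrolidone/PEG/propylene glycol, were video-recorded and algorithmically compared with reference-drug behavioral signatures. This gave class-match probabilities (antidepressant, anxiolytic, etc.) at the most efficacious of 3 doses. MED was defined as the dose with ≥50% total activity, usually tested across 0.3–30 mpk.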

[1] = i.p. 15 min before behavioral test, most efficacious dose(s) of 3 doses
[2] = SmartCube, i.p. 15 min before test, most efficacious dose(s)

Row | Structure (SMILES) | minimal effective dose (i.p.) [mg/kg] | AD: ADHD (probability that activity matches class) [1] | AG: analgesic (probability that activity matches class) [1] | AX: anxiolytic (probability that activity matches class) [1] | CE: cognitive enhancer (probability that activity matches class) [1] | DP: anti-depressant (probability that activity matches class) [1] | MS: mood stabilizer (probability that activity matches class) [1] | PS: anti-psychotic (probability that activity matches class) [1] | SD: sedative hypnotic (probability that activity matches class) [1] | UN: uncharacterized CNS activity (probability that activity matches class) [1] | minimal effective dose [mg/kg] | AD: ADHD (probability that activity matches class) [2] | AG: analgesic (probability that activity matches class) [2] | AX: anxiolytic (probability that activity matches class) [2] | CE: cognitive enhancer (probability that activity matches class) [2] | DP: anti-depressant (probability that activity matches class) [2] | MS: mood stabilizer (probability that activity matches class) [2] | PS: anti-psychotic (probability that activity matches class) [2] | SD: sedative hypnotic (probability that activity matches class) [2] | UN: uncharacterized CNS activity (probability that activity matches class) [2]
1 | CNC[C@@H]1OCCc2cccc(-c3cccnc3)c21 (single isomer, unassigned) [Compound 1, bis-hydrochloride] | 10 to 30 | + (LOQ ≤ + <5%) | + (LOQ ≤ + <5%) | ++ (5% ≤ ++ <25%) | ++ (5% ≤ ++ <25%) | ++ (5% ≤ ++ <25%) | + (LOQ ≤ + <5%) | ++ (5% ≤ ++ <25%) | + (LOQ ≤ + <5%) | ++ (5% ≤ ++ <25%) |  |  |  |  |  |  |  |  |  | 
2 | CNC[C@H]1OCCc2c(-c3ccncn3)cccc21 (single isomer, unassigned) [Compound 73, hydrochloride salt] | 3 to 10 | + (LOQ ≤ + <5%) | + (LOQ ≤ + <5%) | ++ (5% ≤ ++ <25%) | + (LOQ ≤ + <5%) | ++++ (50% ≤ ++++) | + (LOQ ≤ + <5%) | + (LOQ ≤ + <5%) | + (LOQ ≤ + <5%) | + (LOQ ≤ + <5%) |  |  |  |  |  |  |  |  |  | 
3 | CCNC[C@H]1OCCc2c(-c3ccncc3)cccc21 (single isomer, unassigned) [Compound 67, hydrochloride salt] | ≤ 3 | + (LOQ ≤ + <5%) | + (LOQ ≤ + <5%) | + (LOQ ≤ + <5%) | + (LOQ ≤ + <5%) | ++++ (50% ≤ ++++) | + (LOQ ≤ + <5%) | + (LOQ ≤ + <5%) | + (LOQ ≤ + <5%) | ++ (5% ≤ ++ <25%) |  |  |  |  |  |  |  |  |  | 
4 | NC[C@H]1OCCc2c(-c3cnccn3)cccc21 (single isomer, unassigned) [Compound 83, hydrochloride salt] | 3 to 10 | ++ (5% ≤ ++ <25%) | + (LOQ ≤ + <5%) | ++ (5% ≤ ++ <25%) | + (LOQ ≤ + <5%) | ++++ (50% ≤ ++++) | + (LOQ ≤ + <5%) | + (LOQ ≤ + <5%) | + (LOQ ≤ + <5%) | + (LOQ ≤ + <5%) |  |  |  |  |  |  |  |  |  | 
5 | c1cc(-c2ccncc2)c2c(c1)[C@@H](CNC1CC1)OCC2 (single isomer, unassigned) [Compound 181, hydrochloride salt] |  |  |  |  |  |  |  |  |  |  | ≤ 3 | ++ (5% ≤ ++ <25%) | + (LOQ ≤ + <5%) | + (LOQ ≤ + <5%) | + (LOQ ≤ + <5%) | ++++ (50% ≤ ++++) | + (LOQ ≤ + <5%) | + (LOQ ≤ + <5%) | + (LOQ ≤ + <5%) | ++ (5% ≤ ++ <25%)
6 | NC[C@@H]1OCCc2c(-c3cncnc3)cccc21 (single isomer, unassigned) [Compound 27, hydrochloride salt] | > 30 | + (LOQ ≤ + <5%) | + (LOQ ≤ + <5%) | ++ (5% ≤ ++ <25%) | + (LOQ ≤ + <5%) | ++ (5% ≤ ++ <25%) | + (LOQ ≤ + <5%) | ++ (5% ≤ ++ <25%) | + (LOQ ≤ + <5%) | + (LOQ ≤ + <5%) |  |  |  |  |  |  |  |  |  | 
7 | Cc1cc(-c2cccc3c2CCO[C@@H]3CN)ccn1 (single isomer, unassigned) [Compound 123, hydrochloride salt] | ≤ 3 | ++ (5% ≤ ++ <25%) | + (LOQ ≤ + <5%) | ++ (5% ≤ ++ <25%) | + (LOQ ≤ + <5%) | ++++ (50% ≤ ++++) | + (LOQ ≤ + <5%) | + (LOQ ≤ + <5%) | + (LOQ ≤ + <5%) | + (LOQ ≤ + <5%) |  |  |  |  |  |  |  |  |  | 
8 | NCC1OCCc2c(-c3cnoc3)cccc21 (stereo not shown) [Compound 64, (5-(Isoxazol-4-yl)isochroman-1-yl)methanamine hydrochloride salt] | 3 to 10 | + (LOQ ≤ + <5%) | + (LOQ ≤ + <5%) | + (LOQ ≤ + <5%) | + (LOQ ≤ + <5%) | ++++ (50% ≤ ++++) | + (LOQ ≤ + <5%) | + (LOQ ≤ + <5%) | + (LOQ ≤ + <5%) | ++ (5% ≤ ++ <25%) |  |  |  |  |  |  |  |  |  | 
9 | NCC1OCCc2c(-c3ccncn3)cccc21 (stereo not shown) [Compound 60, (5-(Pyrimidin-4-yl)isochroman-1-yl)methanamine hydrochloride salt] | 3 to 10 | + (LOQ ≤ + <5%) | ++ (5% ≤ ++ <25%) | ++ (5% ≤ ++ <25%) | + (LOQ ≤ + <5%) | ++++ (50% ≤ ++++) | + (LOQ ≤ + <5%) | + (LOQ ≤ + <5%) | + (LOQ ≤ + <5%) | + (LOQ ≤ + <5%) |  |  |  |  |  |  |  |  |  | 
10 | NC[C@@H]1OCCCc2c(-c3cncs3)cccc21 (single isomer, unassigned) [Compound 170, hydrochloride salt] | 3 to 10 | + (LOQ ≤ + <5%) | + (LOQ ≤ + <5%) | ++ (5% ≤ ++ <25%) | + (LOQ ≤ + <5%) | ++ (5% ≤ ++ <25%) | + (LOQ ≤ + <5%) | + (LOQ ≤ + <5%) | ++ (5% ≤ ++ <25%) | +++ (25% ≤ +++ <50%) |  |  |  |  |  |  |  |  |  | 
11 | CNC[C@@H]1OCc2c(-c3ccncc3)cccc21 (single isomer, unassigned) [Compound 39, hydrochloride salt] | ≤ 3 | ++ (5% ≤ ++ <25%) | + (LOQ ≤ + <5%) | ++ (5% ≤ ++ <25%) | + (LOQ ≤ + <5%) | ++++ (50% ≤ ++++) | + (LOQ ≤ + <5%) | + (LOQ ≤ + <5%) | ++ (5% ≤ ++ <25%) | + (LOQ ≤ + <5%) |  |  |  |  |  |  |  |  |  | 
12 | CNC[C@@H]1OCCc2c(-c3ccccn3)cccc21 (single isomer, unassigned) [Compound 43, hydrochloride salt] | 10 to 30 | + (LOQ ≤ + <5%) | + (LOQ ≤ + <5%) | ++ (5% ≤ ++ <25%) | + (LOQ ≤ + <5%) | ++ (5% ≤ ++ <25%) | + (LOQ ≤ + <5%) | + (LOQ ≤ + <5%) | + (LOQ ≤ + <5%) | +++ (25% ≤ +++ <50%) |  |  |  |  |  |  |  |  |  | 
13 | NC[C@H]1OCCCc2c(-c3cncs3)cccc21 (single isomer, unassigned) [Compound 171, hydrochloride salt] | 10 to 30 | + (LOQ ≤ + <5%) | + (LOQ ≤ + <5%) | + (LOQ ≤ + <5%) | + (LOQ ≤ + <5%) | + (LOQ ≤ + <5%) | + (LOQ ≤ + <5%) | + (LOQ ≤ + <5%) | + (LOQ ≤ + <5%) | + (LOQ ≤ + <5%) |  |  |  |  |  |  |  |  |  | 
